Measurements published in patent US20040097591A1, “Use of selective progesterone receptor modulators for the treatment of androgen deficiency” (priority 2002, published 2004).

What was measured:
[1] = target: T1, progesterone receptor (Oryctolagus cuniculus, UniProt P06186); details: rabbit model, scale of 0-4; agonistic/antagonistic effect at the progesterone receptor; cited from earlier work
T1 construct: effects of compounds at the progesterone receptor using a rabbit model; from tissue; host or cells: living rabbit (whole-animal model)
T1 sequence (P06186 1-930): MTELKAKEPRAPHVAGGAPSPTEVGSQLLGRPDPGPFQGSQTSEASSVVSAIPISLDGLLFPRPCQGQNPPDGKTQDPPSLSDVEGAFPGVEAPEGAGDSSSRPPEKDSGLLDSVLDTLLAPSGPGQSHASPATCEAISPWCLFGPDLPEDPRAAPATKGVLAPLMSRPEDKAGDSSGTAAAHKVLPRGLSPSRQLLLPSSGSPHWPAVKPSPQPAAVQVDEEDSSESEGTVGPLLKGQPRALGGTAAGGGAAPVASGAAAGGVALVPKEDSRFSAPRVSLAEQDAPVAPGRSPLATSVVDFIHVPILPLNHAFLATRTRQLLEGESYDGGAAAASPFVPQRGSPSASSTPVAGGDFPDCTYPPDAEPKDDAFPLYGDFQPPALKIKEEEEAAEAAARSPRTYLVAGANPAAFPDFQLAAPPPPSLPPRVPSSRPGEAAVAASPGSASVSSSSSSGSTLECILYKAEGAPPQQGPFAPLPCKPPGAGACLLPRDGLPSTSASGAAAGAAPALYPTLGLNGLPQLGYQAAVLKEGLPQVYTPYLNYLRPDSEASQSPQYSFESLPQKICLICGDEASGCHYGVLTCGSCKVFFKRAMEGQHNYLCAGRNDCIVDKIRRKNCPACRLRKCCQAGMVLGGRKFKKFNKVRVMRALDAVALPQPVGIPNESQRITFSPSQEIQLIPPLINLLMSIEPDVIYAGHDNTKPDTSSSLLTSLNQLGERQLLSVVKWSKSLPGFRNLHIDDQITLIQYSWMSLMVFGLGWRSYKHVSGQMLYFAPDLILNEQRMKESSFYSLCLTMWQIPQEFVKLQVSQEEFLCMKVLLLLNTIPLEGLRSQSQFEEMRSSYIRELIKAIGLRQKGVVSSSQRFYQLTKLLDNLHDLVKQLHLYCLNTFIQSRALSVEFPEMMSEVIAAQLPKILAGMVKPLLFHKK

[2] = test system: testosterone levels; experiment: Phase II study of J867: total testosterone levels over 12 weeks; assay type: in vivo, female subjects; details: for mean testosterone concentration increase over the treatment period: 12 week treatment, female subjects aged 18-49
Description: (§1) The effect of SPRMs on testosterone levels and SHBG levels was studied using various doses of J867 over three months. The study was a phase II, multi-center, randomized, double blind, parallel group study of J867 at doses of 5 mg, 10 mg, and 25 mg once a day (QD)compared to placebo. Approximately 120 female subjects between the ages of 18 and 49 were enrolled in the study and randomly assigned to one of the four dosing groups above. During the 12 week study, testosterone and SHBG were measured at screening visits during weeks 2, 4, 8, and 12 of the study.
FIG. 1 is a graph showing total testosterone levels as a function of time during the study. […] Testosterone concentrations were relatively constant for the group receiving placebo. […] Over the treatment period, the mean testosterone concentrations for the 5 mg QD group increased approximately 7-15 ng/dL; the mean increase for the 10 mg QD group was approximately 15-21 ng/dL; and the mean concentrations observed following treatment with 25 mg QD increased approximately 16-25 ng/dL.

[3] = test system: SHBG levels; experiment: Phase II study of J867: SHBG levels over 12 weeks; assay type: in vivo, female subjects
Description: as §1
SHBG levels were also measured at weeks 2, 4, 8, and 12 of the study.

Compound	McPhail score [1]	mean testosterone concentration increase over the treatment period ([2]; 5 mg QD)	mean testosterone concentration increase over the treatment period ([2]; 10 mg QD)	mean testosterone concentration increase over the treatment period ([2]; 25 mg QD)	total testosterone levels (FIG. 1) ([2]; all doses (5, 10, 25 mg QD))	visit with largest mean increase of testosterone from baseline ([2]; all three dose groups (5, 10, 25 mg QD))	testosterone concentrations at the end of the study ([2]; all three dose groups, week 12)	mean level of SHBG during treatment ([3]; 5 mg QD)	mean level of SHBG during treatment ([3]; 10 mg QD)	mean level of SHBG during treatment ([3]; 25 mg QD)	SHBG during the treatment period of three months (FIG. 2) ([3]; weeks 2, 4, 8, 12, doses not separated)
CC(=O)[C@H]1CC[C@H]2[C@@H]3CCC4=CC(=O)CC[C@]4(C)[C@H]3CC[C@]12C [progesterone]	4										
CC#C[C@]1(O)CC[C@H]2[C@@H]3CCC4=CC(=O)CCC4=C3[C@@H](c3ccc(N(C)C)cc3)C[C@@]21C [RU486, mifepristone]	less than 0.5										
COC[C@]1(OC)CC[C@H]2[C@@H]3CCC4=CC(=O)CCC4=C3[C@@H](c3ccc(/C=N/O)cc3)C[C@@]21C [J867, [4-[17β-Methoxy-17α-(methoxymethyl)-3-oxoestra-4,9-dien-11β-yl]benzaldehyd-(1E)-oxim]]		7 to 15 ng/dL	15 to 21 ng/dL	16 to 25 ng/dL	testosterone levels increased with all doses	week 2 visit	still elevated above baseline	remained relatively constant	decreased from baseline	decreased from baseline	a decrease in SHBG
